{
  "source": "paper PMC8800111",
  "about": "(The Journal of Biological Chemistry, 2021)",
  "type_in_all_cases": "cell-based",
  "key": {"[1]": {"biological_target": "proteins of U3A human fibrosarcoma cells (4462 proteins detected) (Homo sapiens, UniProt O00391)", "details": "protein QSOX1; U3A cells"}, "[2]": {"biological_target": "proteins of U3A human fibrosarcoma cells (4462 proteins detected) (Homo sapiens, UniProt O15400)", "sequence (O15400 whole entry)": "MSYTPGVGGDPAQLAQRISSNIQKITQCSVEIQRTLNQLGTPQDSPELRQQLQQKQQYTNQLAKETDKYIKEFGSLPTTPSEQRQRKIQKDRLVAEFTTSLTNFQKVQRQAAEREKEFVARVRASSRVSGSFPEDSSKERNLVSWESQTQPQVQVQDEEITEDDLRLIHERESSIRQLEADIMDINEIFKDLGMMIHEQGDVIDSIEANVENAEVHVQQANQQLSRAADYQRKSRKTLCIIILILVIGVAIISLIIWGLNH", "details": "protein STX7; U3A cells"}, "[3]": {"biological_target": "proteins of U3A human fibrosarcoma cells (4462 proteins detected) (Homo sapiens, UniProt O15498)", "sequence (O15498 whole entry)": "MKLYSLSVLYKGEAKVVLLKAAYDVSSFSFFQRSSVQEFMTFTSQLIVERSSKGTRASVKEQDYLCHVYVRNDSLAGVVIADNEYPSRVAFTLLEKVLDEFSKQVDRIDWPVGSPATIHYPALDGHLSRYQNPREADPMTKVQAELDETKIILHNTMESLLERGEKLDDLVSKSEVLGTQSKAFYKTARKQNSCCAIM", "details": "protein YKT6; U3A, 10 μM, 2 h"}, "[4]": {"biological_target": "proteins of U3A human fibrosarcoma cells (4462 proteins detected) (Homo sapiens, UniProt O75170)", "details": "protein PPP6R2; soluble abundance after heat, U3A cells"}, "[5]": {"biological_target": "proteins of U3A human fibrosarcoma cells (4462 proteins detected) (Homo sapiens, UniProt O95104)", "details": "protein SCAF4; U3A cells"}, "[6]": {"biological_target": "proteins of U3A human fibrosarcoma cells (4462 proteins detected) (Homo sapiens, UniProt P05388)", "details": "protein RPLP0; RPLP0P6; U3A cells"}, "[7]": {"biological_target": "proteins of U3A human fibrosarcoma cells (4462 proteins detected) (Homo sapiens, UniProt P05556)", "details": "protein ITGB1; U3A cells"}, "[8]": {"biological_target": "proteins of U3A human fibrosarcoma cells (4462 proteins detected) (Homo sapiens, UniProt P31949)", "details": "protein S100A11, U3A cells"}, "[9]": {"biological_target": "proteins of U3A human fibrosarcoma cells (4462 proteins detected) (Homo sapiens, UniProt P50542)", "details": "protein PEX5, U3A cells"}, "[10]": {"biological_target": "proteins of U3A human fibrosarcoma cells (4462 proteins detected) (Homo sapiens, UniProt P61313)", "details": "protein RPL15; U3A cells"}, "[11]": {"biological_target": "proteins of U3A human fibrosarcoma cells (4462 proteins detected) (Homo sapiens, UniProt Q13620)", "details": "protein CUL4B; U3A cells"}, "[12]": {"biological_target": "proteins of U3A human fibrosarcoma cells (4462 proteins detected) (Homo sapiens, UniProt Q14651)", "details": "protein PLS1; U3A cells"}, "[13]": {"biological_target": "proteins of U3A human fibrosarcoma cells (4462 proteins detected) (Homo sapiens, UniProt Q15365)", "details": "protein PCBP1; U3A cells"}, "[14]": {"biological_target": "proteins of U3A human fibrosarcoma cells (4462 proteins detected) (Homo sapiens, UniProt Q15599)", "sequence (Q15599 whole entry)": "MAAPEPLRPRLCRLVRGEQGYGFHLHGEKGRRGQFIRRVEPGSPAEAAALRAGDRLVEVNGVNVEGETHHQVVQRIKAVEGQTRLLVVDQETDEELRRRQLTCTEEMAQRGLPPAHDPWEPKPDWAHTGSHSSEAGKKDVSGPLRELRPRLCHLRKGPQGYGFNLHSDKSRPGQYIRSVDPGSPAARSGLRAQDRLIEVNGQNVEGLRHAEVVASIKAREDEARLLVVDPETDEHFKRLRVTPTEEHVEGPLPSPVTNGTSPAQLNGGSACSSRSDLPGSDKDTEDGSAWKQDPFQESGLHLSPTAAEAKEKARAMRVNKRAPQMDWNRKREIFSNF", "details": "protein SLC9A3R2, U3A cells"}, "[15]": {"biological_target": "proteins of U3A human fibrosarcoma cells (4462 proteins detected) (Homo sapiens, UniProt Q16891)", "details": "protein IMMT; U3A cells"}, "[16]": {"biological_target": "proteins of U3A human fibrosarcoma cells (4462 proteins detected) (Homo sapiens, UniProt Q7Z4W1)", "sequence (Q7Z4W1 whole entry)": "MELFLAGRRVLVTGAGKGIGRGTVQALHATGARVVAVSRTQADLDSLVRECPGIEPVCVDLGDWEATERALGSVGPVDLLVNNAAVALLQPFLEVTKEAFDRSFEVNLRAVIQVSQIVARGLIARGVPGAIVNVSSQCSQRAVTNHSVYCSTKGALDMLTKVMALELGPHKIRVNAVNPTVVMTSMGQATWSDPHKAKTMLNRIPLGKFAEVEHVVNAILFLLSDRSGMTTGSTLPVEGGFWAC", "details": "protein DCXR; soluble abundance after heat, U3A cells"}, "[17]": {"biological_target": "proteins of U3A human fibrosarcoma cells (4462 proteins detected) (Homo sapiens, UniProt Q8IXJ6)", "sequence (Q8IXJ6 whole entry)": "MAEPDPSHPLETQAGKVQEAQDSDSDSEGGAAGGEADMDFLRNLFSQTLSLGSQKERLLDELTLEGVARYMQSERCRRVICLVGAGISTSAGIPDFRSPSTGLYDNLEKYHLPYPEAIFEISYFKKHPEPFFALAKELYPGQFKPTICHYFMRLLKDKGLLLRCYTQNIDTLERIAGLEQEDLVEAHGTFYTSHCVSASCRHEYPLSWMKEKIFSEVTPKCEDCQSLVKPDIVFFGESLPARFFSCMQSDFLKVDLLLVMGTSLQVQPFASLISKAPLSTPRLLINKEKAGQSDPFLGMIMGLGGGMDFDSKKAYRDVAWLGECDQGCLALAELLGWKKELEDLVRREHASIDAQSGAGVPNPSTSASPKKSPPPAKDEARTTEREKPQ", "details": "protein SIRT2; U3A cells"}, "[18]": {"biological_target": "proteins of U3A human fibrosarcoma cells (4462 proteins detected) (Homo sapiens, UniProt Q8WXD5)", "details": "protein GEMIN6, U3A cells"}, "[19]": {"biological_target": "proteins of U3A human fibrosarcoma cells (4462 proteins detected) (Homo sapiens, UniProt Q92530)", "sequence (Q92530 whole entry)": "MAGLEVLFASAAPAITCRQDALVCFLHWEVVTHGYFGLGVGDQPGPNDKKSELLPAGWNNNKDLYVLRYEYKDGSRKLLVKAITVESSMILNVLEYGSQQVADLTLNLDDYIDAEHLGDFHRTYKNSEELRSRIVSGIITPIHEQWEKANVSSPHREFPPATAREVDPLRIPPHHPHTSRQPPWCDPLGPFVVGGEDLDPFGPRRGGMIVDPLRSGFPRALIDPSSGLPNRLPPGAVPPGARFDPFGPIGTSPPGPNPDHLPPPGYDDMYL", "details": "protein PSMF1; soluble abundance after heat, U3A cells"}, "[20]": {"biological_target": "proteins of U3A human fibrosarcoma cells (4462 proteins detected) (Homo sapiens, UniProt Q96QG7)", "sequence (Q96QG7 whole entry)": "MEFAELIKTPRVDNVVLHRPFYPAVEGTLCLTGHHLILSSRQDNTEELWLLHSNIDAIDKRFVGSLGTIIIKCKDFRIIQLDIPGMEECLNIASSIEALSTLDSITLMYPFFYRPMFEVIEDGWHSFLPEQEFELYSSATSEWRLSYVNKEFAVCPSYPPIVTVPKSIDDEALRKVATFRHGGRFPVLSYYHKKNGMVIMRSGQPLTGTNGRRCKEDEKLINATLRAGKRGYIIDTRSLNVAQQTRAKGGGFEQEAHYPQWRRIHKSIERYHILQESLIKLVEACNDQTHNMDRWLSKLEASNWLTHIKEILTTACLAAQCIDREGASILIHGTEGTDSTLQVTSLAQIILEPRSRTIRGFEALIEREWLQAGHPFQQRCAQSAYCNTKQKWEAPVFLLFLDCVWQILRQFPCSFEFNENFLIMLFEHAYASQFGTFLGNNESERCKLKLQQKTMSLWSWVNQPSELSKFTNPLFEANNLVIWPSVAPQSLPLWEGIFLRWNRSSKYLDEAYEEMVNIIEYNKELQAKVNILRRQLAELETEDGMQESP", "details": "protein MTMR9; soluble abundance after heat, U3A cells"}, "[21]": {"biological_target": "proteins of U3A human fibrosarcoma cells (4462 proteins detected) (Homo sapiens, UniProt Q9HAU0)", "sequence (Q9HAU0 whole entry)": "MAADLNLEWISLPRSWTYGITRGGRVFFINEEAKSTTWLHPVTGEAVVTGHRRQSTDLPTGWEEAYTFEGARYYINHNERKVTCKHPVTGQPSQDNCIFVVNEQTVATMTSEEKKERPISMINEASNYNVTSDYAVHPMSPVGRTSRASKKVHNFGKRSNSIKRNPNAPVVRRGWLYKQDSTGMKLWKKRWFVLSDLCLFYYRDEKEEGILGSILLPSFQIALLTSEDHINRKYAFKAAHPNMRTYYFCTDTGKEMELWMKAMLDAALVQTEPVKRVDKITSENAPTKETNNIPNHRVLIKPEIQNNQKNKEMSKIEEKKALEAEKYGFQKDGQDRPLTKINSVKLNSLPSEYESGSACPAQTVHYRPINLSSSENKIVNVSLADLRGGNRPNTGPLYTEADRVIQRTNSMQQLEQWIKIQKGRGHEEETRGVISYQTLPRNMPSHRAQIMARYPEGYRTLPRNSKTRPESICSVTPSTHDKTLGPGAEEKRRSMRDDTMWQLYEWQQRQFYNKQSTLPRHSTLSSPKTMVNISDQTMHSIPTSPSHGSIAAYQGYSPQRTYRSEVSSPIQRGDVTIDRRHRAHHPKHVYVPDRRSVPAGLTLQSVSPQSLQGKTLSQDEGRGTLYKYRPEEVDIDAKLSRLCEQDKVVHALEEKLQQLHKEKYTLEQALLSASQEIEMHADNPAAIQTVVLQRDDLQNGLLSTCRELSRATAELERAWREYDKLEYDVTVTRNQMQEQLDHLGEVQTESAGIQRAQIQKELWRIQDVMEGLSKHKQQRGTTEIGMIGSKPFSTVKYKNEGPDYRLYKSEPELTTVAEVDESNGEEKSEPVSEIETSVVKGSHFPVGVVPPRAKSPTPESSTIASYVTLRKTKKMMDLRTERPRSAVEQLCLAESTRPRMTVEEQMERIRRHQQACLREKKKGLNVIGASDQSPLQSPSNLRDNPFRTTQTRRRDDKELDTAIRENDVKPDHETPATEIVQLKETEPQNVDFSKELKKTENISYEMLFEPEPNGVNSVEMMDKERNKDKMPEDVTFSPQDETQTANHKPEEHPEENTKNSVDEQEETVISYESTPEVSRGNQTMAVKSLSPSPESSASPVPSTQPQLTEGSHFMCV", "details": "protein PLEKHA5, U3A cells"}, "[22]": {"biological_target": "proteins of U3A human fibrosarcoma cells (4462 proteins detected) (Homo sapiens, UniProt Q9HD33)", "details": "protein MRPL47; U3A cells"}, "[23]": {"biological_target": "proteins of U3A human fibrosarcoma cells (4462 proteins detected) (Homo sapiens, UniProt Q9NQT5)", "sequence (Q9NQT5 whole entry)": "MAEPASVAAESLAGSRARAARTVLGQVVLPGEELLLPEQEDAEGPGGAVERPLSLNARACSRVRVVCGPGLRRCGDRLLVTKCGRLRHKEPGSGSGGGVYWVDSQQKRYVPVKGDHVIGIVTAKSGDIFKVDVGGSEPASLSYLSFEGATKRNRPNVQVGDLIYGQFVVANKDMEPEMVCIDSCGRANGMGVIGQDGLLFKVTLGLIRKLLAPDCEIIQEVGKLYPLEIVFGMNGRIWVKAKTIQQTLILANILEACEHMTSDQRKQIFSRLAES", "details": "protein EXOSC3; U3A cells"}, "[24]": {"biological_target": "proteins of U3A human fibrosarcoma cells (4462 proteins detected) (Homo sapiens, UniProt Q9NR28)", "sequence (Q9NR28 22-239)": "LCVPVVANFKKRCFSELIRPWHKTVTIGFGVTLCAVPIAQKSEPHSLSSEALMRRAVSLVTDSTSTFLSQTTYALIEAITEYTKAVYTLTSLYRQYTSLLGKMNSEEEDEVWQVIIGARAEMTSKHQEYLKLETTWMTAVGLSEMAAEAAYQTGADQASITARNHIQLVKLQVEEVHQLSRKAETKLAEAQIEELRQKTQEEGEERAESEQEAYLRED", "details": "protein DIABLO; U3A cells"}, "[25]": {"biological_target": "proteins of U3A human fibrosarcoma cells (4462 proteins detected) (Homo sapiens, UniProt Q9NRY5)", "details": "protein FAM114A2; U3A cells"}, "[26]": {"biological_target": "proteins of U3A human fibrosarcoma cells (4462 proteins detected) (Homo sapiens, UniProt Q9NXW2)", "sequence (Q9NXW2 whole entry)": "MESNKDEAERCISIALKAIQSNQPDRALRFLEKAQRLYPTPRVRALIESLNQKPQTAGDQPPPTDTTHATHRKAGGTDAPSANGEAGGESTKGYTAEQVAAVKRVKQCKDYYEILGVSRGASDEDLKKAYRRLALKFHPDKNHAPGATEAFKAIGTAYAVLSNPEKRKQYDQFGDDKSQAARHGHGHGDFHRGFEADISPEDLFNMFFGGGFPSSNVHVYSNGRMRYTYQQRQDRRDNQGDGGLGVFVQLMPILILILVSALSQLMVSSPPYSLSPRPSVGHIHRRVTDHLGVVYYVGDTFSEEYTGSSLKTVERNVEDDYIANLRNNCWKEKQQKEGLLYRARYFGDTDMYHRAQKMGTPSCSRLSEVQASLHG", "details": "protein DNAJB12; soluble abundance after heat, U3A cells"}, "[27]": {"biological_target": "proteins of U3A human fibrosarcoma cells (4462 proteins detected) (Homo sapiens, UniProt Q9P032)", "details": "protein NDUFAF4; U3A cells"}, "[28]": {"biological_target": "proteins of U3A human fibrosarcoma cells (4462 proteins detected) (Homo sapiens, UniProt Q9P2K3)", "details": "protein RCOR3; U3A cells"}, "[29]": {"biological_target": "proteins of U3A human fibrosarcoma cells (4462 proteins detected) (Homo sapiens, UniProt Q9Y4X5)", "details": "protein ARIH1; U3A cells"}, "[30]": {"biological_target": "proteins of U3A human fibrosarcoma cells (4462 proteins detected) (Homo sapiens, UniProt Q9Y592)", "sequence (Q9Y592 whole entry)": "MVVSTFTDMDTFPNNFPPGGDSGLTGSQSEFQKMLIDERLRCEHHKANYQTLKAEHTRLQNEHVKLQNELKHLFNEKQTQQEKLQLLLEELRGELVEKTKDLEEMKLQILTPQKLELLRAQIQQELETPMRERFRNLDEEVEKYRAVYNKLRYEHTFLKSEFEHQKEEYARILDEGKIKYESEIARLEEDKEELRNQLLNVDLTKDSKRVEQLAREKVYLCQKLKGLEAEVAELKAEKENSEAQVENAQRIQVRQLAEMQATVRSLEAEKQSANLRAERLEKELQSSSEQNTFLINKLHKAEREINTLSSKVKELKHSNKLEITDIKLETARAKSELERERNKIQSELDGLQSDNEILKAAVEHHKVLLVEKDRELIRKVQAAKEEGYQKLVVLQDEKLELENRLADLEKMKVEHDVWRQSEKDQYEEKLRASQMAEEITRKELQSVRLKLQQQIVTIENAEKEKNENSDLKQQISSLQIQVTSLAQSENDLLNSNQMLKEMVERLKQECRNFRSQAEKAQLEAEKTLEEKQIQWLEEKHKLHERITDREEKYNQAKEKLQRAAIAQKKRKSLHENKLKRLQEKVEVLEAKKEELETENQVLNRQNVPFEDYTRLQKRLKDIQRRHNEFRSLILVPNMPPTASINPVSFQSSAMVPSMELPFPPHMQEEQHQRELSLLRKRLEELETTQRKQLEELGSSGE", "details": "protein CEP83; U3A, 10 μM, 2 h"}},
  "data": [
    {"smiles": "CCc1nc(N)nc(N)c1-c1ccc(Cl)cc1", "note": "[pyrimethamine]", "values": [
      {"measurement": "Log2 (PYR/DMSO)", "setting": "[1]", "value": 0.17},
      {"measurement": "Log2 (PYR/DMSO)", "setting": "[2]", "value": 0.18},
      {"measurement": "Log2 (PYR/DMSO), YKT6", "setting": "[3]", "value": 0.27},
      {"measurement": "Log2 (PYR/DMSO)", "setting": "[4]", "value": 0.13},
      {"measurement": "Log2 (PYR/DMSO)", "setting": "[5]", "value": 0.19},
      {"measurement": "Log2 (PYR/DMSO)", "setting": "[6]", "value": 0.23},
      {"measurement": "Log2 (PYR/DMSO)", "setting": "[7]", "value": 0.16},
      {"measurement": "Log2 (PYR/DMSO)", "setting": "[8]", "value": -0.04},
      {"measurement": "Log2 (PYR/DMSO)", "setting": "[9]", "value": -0.03},
      {"measurement": "Log2 (PYR/DMSO)", "setting": "[10]", "value": 0.20},
      {"measurement": "Log2 (PYR/DMSO)", "setting": "[11]", "value": 0.18},
      {"measurement": "Log2 (PYR/DMSO)", "setting": "[12]", "value": 0.17},
      {"measurement": "Log2 (PYR/DMSO)", "setting": "[13]", "value": 0.18},
      {"measurement": "Log2 (PYR/DMSO)", "setting": "[14]", "value": -0.05},
      {"measurement": "Log2 (PYR/DMSO)", "setting": "[15]", "value": 0.19},
      {"measurement": "Log2 (PYR/DMSO)", "setting": "[16]", "value": 0.14},
      {"measurement": "Log2 (PYR/DMSO)", "setting": "[17]", "value": 0.19},
      {"measurement": "Log2 (PYR/DMSO)", "setting": "[18]", "value": -0.04},
      {"measurement": "Log2 (PYR/DMSO)", "setting": "[19]", "value": 0.13},
      {"measurement": "Log2 (PYR/DMSO)", "setting": "[20]", "value": 0.15},
      {"measurement": "Log2 (PYR/DMSO)", "setting": "[21]", "value": -0.05},
      {"measurement": "Log2 (PYR/DMSO)", "setting": "[22]", "value": 0.17},
      {"measurement": "Log2 (PYR/DMSO)", "setting": "[23]", "value": 0.18},
      {"measurement": "Log2 (PYR/DMSO)", "setting": "[24]", "value": 0.16},
      {"measurement": "Log2 (PYR/DMSO)", "setting": "[25]", "value": 0.17},
      {"measurement": "Log2 (PYR/DMSO)", "setting": "[26]", "value": 0.15},
      {"measurement": "Log2 (PYR/DMSO)", "setting": "[27]", "value": 0.17},
      {"measurement": "Log2 (PYR/DMSO)", "setting": "[28]", "value": 0.21},
      {"measurement": "Log2 (PYR/DMSO)", "setting": "[29]", "value": 0.16},
      {"measurement": "Log2 (PYR/DMSO), CEP83", "setting": "[30]", "value": -0.43}
    ]}
  ]
}
